In BindingDB's records for doi:10.3109/14756366.2013.827678 (Qingdao University, 2014):
pIC50: −log10 of the molar value. “And” between values parts separate entries of the source, which are not always exact repeats. Equal entries are not always repeated.

molecular target: T1, Histone deacetylase 8 (Homo sapiens, UniProt Q9BY41); assay: Enzyme inhibition assay
T1 sequence (Q9BY41 whole entry): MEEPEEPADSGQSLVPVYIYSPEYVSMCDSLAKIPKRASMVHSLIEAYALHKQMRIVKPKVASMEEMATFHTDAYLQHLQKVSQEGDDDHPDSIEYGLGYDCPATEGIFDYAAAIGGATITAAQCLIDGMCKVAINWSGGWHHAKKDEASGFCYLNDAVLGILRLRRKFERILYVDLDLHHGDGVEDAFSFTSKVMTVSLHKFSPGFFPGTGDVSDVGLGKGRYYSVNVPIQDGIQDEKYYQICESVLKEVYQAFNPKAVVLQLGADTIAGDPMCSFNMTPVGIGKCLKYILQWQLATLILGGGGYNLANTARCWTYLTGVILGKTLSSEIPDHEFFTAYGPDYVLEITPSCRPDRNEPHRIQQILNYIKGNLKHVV
Method: The nucleus extract […] HDAC8 enzyme was expressed in Escherichia coli. Boc-Lys (acetyl)-AMC was used as the substrate of HDAC. SAHA which is the HDAC inhibitor on market was used as a positive control. The compounds were diluted to six concentrations (25, 5, 1, 0.2, 0.04 and 0.008 uM/L) to investigate their ability of inhibiting HDAC activity.

SMILES | pIC50
O=C(CCCCCNC(=O)c1ccc(NC(=O)N[C@H](C(=O)Nc2ccccc2O)c2ccccc2)cc1)NO [(S)-N-(6-(hydroxyamino)-6-oxohexyl)-4-(3-(2-((2-hydroxyphenyl)amino)-2-oxo-1-phenylethyl)ureido)benzamide (L11)] | 5.88
O=C(CCCCCNC(=O)c1ccc(NC(=O)N[C@H](C(=O)NCc2ccc(F)cc2)c2ccccc2)cc1)NO [(S)-4-(3-(2-((4-fluorobenzyl)amino)-2-oxo-1-phenylethyl)ureido)-N-(6-(hydroxyamino)-6-oxohexyl)benzamide (L15)] | 5.97 and 5.92
Cc1cccc(NC(=O)[C@@H](NC(=O)Nc2ccc(C(=O)NCCCCCC(=O)NO)cc2)c2ccccc2)c1 [(S)-N-(6-(hydroxyamino)-6-oxohexyl)-4-(3-(2-oxo-1-phenyl-2-(m-tolylamino)ethyl)ureido)benzamide (L18)] | 5.88
O=C(CCCCCNC(=O)c1ccc(NC(=O)N[C@H](C(=O)Nc2ccco2)c2ccccc2)cc1)NO [(S)-4-(3-(2-(furan-2-ylamino)-2-oxo-1-phenylethyl)ureido)-N-(6-(hydroxyamino)-6-oxohexyl)benzamide (L5)] | 5.84
O=C(CCCCCNC(=O)c1ccc(NC(=O)N[C@H](C(=O)Nc2cccc(C(F)(F)F)c2)c2ccccc2)cc1)NO [(S)-N-(6-(hydroxyamino)-6-oxohexyl)-4-(3-(2-oxo-1-phenyl-2-((3-(trifluoromethyl)phenyl)amino)ethyl)ureido)benzamide (L8)] | 6.01
O=C(CCCCCNC(=O)c1ccc(NC(=O)N[C@H](C(=O)Nc2ccccc2F)c2ccccc2)cc1)NO [(S)-4-(3-(2-((2-fluorophenyl)amino)-2-oxo-1-phenylethyl)ureido)-N-(6-(hydroxyamino)-6-oxohexyl)benzamide (L2)] | 5.88
Cc1ccc(NC(=O)[C@@H](NC(=O)Nc2ccc(C(=O)NCCCCCC(=O)NO)cc2)c2ccccc2)cc1 [(S)-N-(6-(hydroxyamino)-6-oxohexyl)-4-(3-(2-oxo-1-phenyl-2-(p-tolylamino)ethyl)ureido)benzamide (L9)] | 5.73
CC(C)(C)c1ccc(NC(=O)[C@@H](NC(=O)Nc2ccc(C(=O)NCCCCCC(=O)NO)cc2)c2ccccc2)cc1 [(S)-4-(3-(2-((4-(tert-butyl)phenyl)amino)-2-oxo-1-phenylethyl)ureido)-N-(6-(hydroxyamino)-6-oxohexyl)benzamide (L4)] | 5.63
Cc1cc(C)cc(NC(=O)[C@@H](NC(=O)Nc2ccc(C(=O)NCCCCCC(=O)NO)cc2)c2ccccc2)c1 [(S)-4-(3-(2-((3,5-dimethylphenyl)amino)-2-oxo-1-phenylethyl)ureido)-N-(6-(hydroxyamino)-6-oxohexyl)benzamide (L13)] | 5.78
CC(C)c1cccc(C(C)C)c1NC(=O)[C@@H](NC(=O)Nc1ccc(C(=O)NCCCCCC(=O)NO)cc1)c1ccccc1 [(S)-4-(3-(2-((2,6-diisopropylphenyl)amino)-2-oxo-1-phenylethyl)ureido)-N-(6-(hydroxyamino)-6-oxohexyl)benzamide (L17)] | 5.75
CC(C)(C)OC(=O)NC(C(=O)Nc1ccc(C(=O)NO)cc1)c1ccccc1 (configuration not stated) [phenylglycine containing lead compound (4h)] | 5.82
O=C(CCCCCNC(=O)c1ccc(NC(=O)N[C@H](C(=O)Nc2cccc(Cl)c2)c2ccccc2)cc1)NO [(S)-4-(3-(2-((3-chlorophenyl)amino)-2-oxo-1-phenylethyl)ureido)-N-(6-(hydroxyamino)-6-oxohexyl)benzamide (L12)] | 5.89
O=C(CCCCCNC(=O)c1ccc(NC(=O)N[C@H](C(=O)Nc2ccc(Cl)cc2Cl)c2ccccc2)cc1)NO [(S)-4-(3-(2-((2,4-dichlorophenyl)amino)-2-oxo-1-phenylethyl)ureido)-N-(6-(hydroxyamino)-6-oxohexyl)benzamide (L19)] | 5.80
COc1ccccc1NC(=O)[C@@H](NC(=O)Nc1ccc(C(=O)NCCCCCC(=O)NO)cc1)c1ccccc1 [(S)-N-(6-(hydroxyamino)-6-oxohexyl)-4-(3-(2-((2-methoxyphenyl)amino)-2-oxo-1-phenylethyl)ureido)benzamide (L10)] | 5.75
O=C(CCCCCNC(=O)c1ccc(NC(=O)N[C@H](C(=O)Nc2ccc(F)cc2)c2ccccc2)cc1)NO [(S)-4-(3-(2-((4-fluorophenyl)amino)-2-oxo-1-phenylethyl)ureido)-N-(6-(hydroxyamino)-6-oxohexyl)benzamide (L3)] | 5.75
O=C(CCCCCNC(=O)c1ccc(NC(=O)N[C@H](C(=O)NCc2ccccc2)c2ccccc2)cc1)NO [(S)-4-(3-(2-(benzylamino)-2-oxo-1-phenylethyl)ureido)-N-(6-(hydroxyamino)-6-oxohexyl)benzamide (L1)] | 5.82
Cc1ccccc1NC(=O)[C@@H](NC(=O)Nc1ccc(C(=O)NCCCCCC(=O)NO)cc1)c1ccccc1 [(S)-N-(6-(hydroxyamino)-6-oxohexyl)-4-(3-(2-oxo-1-phenyl-2-(o-tolylamino)ethyl)ureido)benzamide (L6)] | 5.87
